Experimental data from patent US7563946B2, “Plant development regulating gene and its uses” (CropDesign, N.V., priority 2000, dated 2009).

Assays:
DR5::GUS [1] = assay: Auxin sensitivity test, DR5::GUS expression in hbt mutant seedlings; assay type: in vivo, Arabidopsis thaliana
Excerpt: (§1) However, new methods to detect auxin responses have emerged, for example with synthetic auxin responsive promoter elements binding ARF transcription factors, such as DR5::GUS (Ulmasov et al., 1997). Since there is also a resemblance of the hbt early embryo phenotype to axr6, bdl and mp mutants (Hardtke and Berleth, 1998; Hamann et al., 1999; Hobbie et al 2000), we used the DR5::GUS construct to re-investigated auxin responses in hbt seedlings. In wildtype seedling roots there is a maximum of DR5::GUS staining in the upper part of the columella (FIG. 17A). This peak is absent in hbt seedlings (FIG. 17F) where no GUS staining is visible. Since the specification of the columella cells is defective in hbt seedlings, we wanted to know whether hbt mutant cells are capable of sensing auxin. Therefore, hbt seedlings were incubated for 3 days on media containing different concentrations of the synthetic auxin 2,4 D, and DR5::GUS expression was analysed. […] It is therefore possible that the HBT gene has a role in the perception of auxin levels.
(§2) DR5::GUS expression in wt roots (A-E) and in hbt seedlings […]. Three days post germination seedlings were transferred to 0.5 GM plates (A and F) and 0.5 GM plates containing 10^−9 M 2,4 D (B and G), 10^−8 M 2,4 D (C and H), 10^−7 M 2,4 D (D and I) and 10^−6 M 2,4 D (E and J) and incubated for another three days. Mutants are shown at 10× magnification of the wildtype seedling.
(§3) DR5::GUS constructs was used (Ulmasov et al., 1997b). Seedlings were germinated on 0.5 GM medium as described, 3 dpg transferred to fresh 0.5 GM plates containing different concentrations of 2,4 D or IAA (5.10^−9 M until 5.10^−6 M) (see FIG. 17) and incubated for an additional 3 days. After that the b-glucuronidase was visualized as described (Willemsen et al., 1998).

DR5::GUS [2] = assay: Auxin sensitivity test, DR5::GUS expression in wildtype seedlings; assay type: in vivo, Arabidopsis thaliana; conditions: 3 days on medium
Excerpt: as §1, §2, §3

hbt seedlings = hbt seedlings treated with ethylene

SMILES | DR5::GUS expression in hbt hypocotyls (DR5::GUS [1]; 5.10^-6 M, 3 days on medium) | DR5::GUS expression in hbt root pole (DR5::GUS [1]; 5.10^-7 M, 3 days on medium) | DR5::GUS staining in hbt seedlings (DR5::GUS [1]; 5.10^-9 M until 5.10^-8 M, 3 days on medium) | DR5::GUS expression in hbt embryos compared to wildtype (DR5::GUS [1]; embryos, after induction) | Auxin sensitivity of hbt seedlings (synthetic auxin response element) (DR5::GUS [1]; hbt seedlings versus wildtype) | DR5::GUS expression in wildtype hypocotyls (DR5::GUS [2]; 5.10^-6 M) | DR5::GUS expression in wildtype root (DR5::GUS [2]; 5.10^-7 M) | DR5::GUS expression in wildtype roots (DR5::GUS [2]; 5.10^-9 M until 5.10^-8 M) | Re-specification of epidermal cells on the hypocotyl (hbt seedlings)
O=C(O)COc1ccc(Cl)cc1Cl [2,4 D] | strong DR5 expression | a DR5 peak in the root pole of hbt | no staining observed | no differences compared to wildtype | altered auxin sensitivity | never observed any ectopic DR5 expression | quite intense and throughout the entire root | ectopic expression of the DR5::GUS promoter in the meristem of wildtype roots | –
C=C [ethylene] | – | – | – | – | – | – | – | – | a large number of ectopic outgrowths was induced
